We go through 32 compounds from patent US20120004228A1, “Bis Aromatic Compounds for Use as LTC4 Synthase Inhibitors” (BIOLIPOX AB, priority 2009, published 2012).

The target of the first assay is T1, Recombinant human LTC4 synthase (Homo sapiens, UniProt Q16873).
T1 construct: made in house; host or cells: Pichia pastoris ('Piccia pastoralis' [sic])
T1 sequence (Q16873 1-150): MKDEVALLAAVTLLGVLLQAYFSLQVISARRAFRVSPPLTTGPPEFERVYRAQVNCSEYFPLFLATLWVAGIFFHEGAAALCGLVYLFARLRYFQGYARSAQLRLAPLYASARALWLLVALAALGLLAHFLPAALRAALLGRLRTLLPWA
The assay can be described thus: In vitro LTC4 synthase assay (LTA4 to LTC4, HTRF detection). It counts as biochemical.
Settings: not given
As for the experimental part:
In the assay, LTC4 synthase catalyses the reaction where the substrate LTA4 is converted to LTC4. Recombinant human LTC4 synthase is expressed in Piccia pastoralis and the purified enzyme is dissolved in 25 mM tris-buffer pH 7.8 supplemented with 0.1 mM glutathione (GSH) and stored at −80° C. The assay is performed in phosphate buffered saline (PBS) pH 7.4 and 5 mM GSH in 384-well plates.
The following is added chronologically to each well:
1. 48 μL LTC4 synthase in PBS with 5 mM GSH. The total protein concentration in this solution is 0.5 μg/mL. 2. 1 μL inhibitor in DMSO (final concentration 10 μM). 3. Incubation of the plate at room temperature for 10 min. 4. 1 μL LTA4 (final concentration 2.5 μM). 5. Incubation of the plate at room temperature for 5 min. 6. 10 μL of the incubation mixture is analysed using homogenous time resolved fluorescent (HTRF) detection.
Background: TR-FRET usually uses a lanthanide donor and a delayed reading to cut background.
With `COc1cccc(Nc2cc(C(=O)O)cc(C(=O)c3ccc(N(C)c4ccc(Cl)cc4)cc3)c2)c1` [Example 10:3, 3-{4-[(4-Chlorophenyl)(methyl)amino]benzoyl}-5-(3-methoxyphenylamino)-benzoic acid], the IC50 came to 0.273 µM.
Regarding `CN(c1ccc(Cl)cc1)c1ccc(C(=O)c2cc(C(=O)O)cc(N(CCCCO)c3ccccn3)c2)nc1` [9:40, 3-{5-[(4-Chlorophenyl)(methyl)amino]picolinoyl}-5-[(4-hydroxybutyl)(2-pyridyl)-amino]benzoic acid], the IC50 amounted to 0.362 µM.
As for `CN(c1ccc(Cl)cc1)c1ccc(C(=O)c2cc(C(=O)O)cc(N(CC3CCCO3)c3ccccc3)c2)nc1` (stereo not shown) [9:41, 3-{5-[(4-Chlorophenyl)(methyl)amino]picolinoyl}-5-{phenyl[(2-tetrahydrofuryl)-methyl]amino}benzoic acid], the IC50 stood at 0.164 µM.
The same measure, in the same setting: the result for `COc1cccc(N(C)c2cc(C(=O)O)cc(C(=O)c3ccc(N(C)c4ccc(Cl)cc4)cn3)c2)c1` [9:21, 3-{5-[(4-Chlorophenyl)(methyl)amino]picolinoyl}-5-[(3-methoxyphenyl)(methyl)-amino]benzoic acid] reads 0.274 µM.
`CN(c1ccc(Cl)cc1)c1ccc(C(=O)c2cc(Oc3cccc(F)c3)cc(C(=O)O)c2)cc1` [8:13, 3-{4-[(4-Chlorophenyl)(methyl)amino]benzoyl}-5-(3-fluorophenoxy)benzoic acid]: the IC50 was 0.059 µM.
Turning to `CN(c1ccc(Cl)cc1)c1ccc(C(=O)c2cc(C(=O)O)cc(C(=O)Nc3ccccc3Cl)c2)nc1` [2:2, 3-{5-[(4-Chlorophenyl)(methyl)amino]picolinoyl}-5-(2-chlorophenyl-carbamoyl)-benzoic acid], the IC50 came out at 0.538 µM.
With `CN(c1ccc(Cl)cc1)c1ccc(C(=O)c2cc(Nc3ccc4c(c3)OC(F)(F)O4)cc(C(=O)O)c2)cc1` [10:18, 3-{4-[(4-Chlorophenyl)(methyl)amino]benzoyl}-5-[3,4-(difluoromethylene-dioxy)phenylamino]benzoic acid], the IC50 is 0.105 µM.
For `CN(c1ccc(Cl)cc1)c1ccc(C(=O)c2cc(C(=O)O)cc(N(C)c3ccc(Cl)cc3)c2)nc1` [9:3, 3-[(4-Chlorophenyl)(methyl)amino]-5-{5-[(4-chlorophenyl)(methyl)amino]-picolinoyl}benzoic acid], the IC50 was 0.045 µM.
`CN(c1ccc(Cl)cc1)c1ccc(C(=O)c2cc(C(=O)O)cc(N(CC3(C)COC3)c3ccccc3)c2)cc1` [10:27, 3-{4-[(4-Chlorophenyl)(methyl)amino]benzoyl}-5-{[(3-methyloxetan-3-yl)-methyl](phenyl)amino}benzoic acid]: the IC50 was 0.133 µM.
Still for that read-out and setting: the result for `CN(c1ccc(Cl)cc1)c1ccc(C(=O)c2cc(Nc3ccccc3)cc(C(=O)O)c2)cc1` [10:8, 3-{4-[(4-Chlorophenyl)(methyl)amino]benzoyl}-5-phenylamino-benzoic acid] reads 0.08 µM; that for `CN(c1ccc(Cl)cc1)c1ccc(C(=O)c2cc(C(=O)O)cc(-c3ccccc3Cl)c2)nc1` [12:3, 2′-Chloro-5-{5-[(4-chlorophenyl)(methyl)amino]picolinoyl}biphenyl-3-carboxylic acid], 0.234 µM; that for `CN(c1ccc(Cl)cc1)c1ccc(C(=O)c2cc(C(=O)O)cc(C(=O)Nc3ccccc3OC(F)F)c2)cc1` [2:13, 3-{4-[(4-Chlorophenyl)(methyl)amino]benzoyl}-5-[2-(difluoromethoxy)phenyl-carbamoyl]benzoic acid], 0.706 µM.
For `COCCN(c1ccccc1)c1cc(C(=O)O)cc(C(=O)c2ccc(N(C)c3ccc(Cl)cc3)cc2)c1` [10:26, 3-{4-[(4-Chlorophenyl)(methyl)amino]benzoyl}-5-[(2-methoxyethyl)(phenyl)-amino]benzoic acid], the half-maximal inhibitory concentration (IC50) is 0.074 µM.
In the case of `CN(c1ccc(Cl)cc1)c1ccc(C(=O)c2cc(C(=O)O)cc(N(C(=O)C3CCOCC3)c3ccccc3)c2)cc1` [10:34, 3-{4-[(4-Chlorophenyl)(methyl)amino]benzoyl}-5-[(N-phenyl)-4-tetrahydro-pyrancarboxamido]benzoic acid], the IC50 amounted to 0.807 µM.
With `CC(C)OCC(O)CN(c1ccccc1)c1cc(C(=O)O)cc(C(=O)c2ccc(N(C)c3ccc(Cl)cc3)cc2)c1` (stereo not shown) [Example 10:38, 3-{4-[(4-Chlorophenyl)(methyl)amino]benzoyl}-5-[(2-hydroxy-3-isopropoxy-propyl)(phenyl)amino]benzoic acid], the IC50 was found to be 0.183 µM.
Still for that read-out and setting: the result for `CN(c1ccc(Cl)cc1)c1ccc(C(=O)c2cc(Nc3ccccc3F)cc(C(=O)O)c2)cc1` [10:9, 3-{4-[(4-Chlorophenyl)(methyl)amino]benzoyl}-5-(2-fluorophenylamino)-benzoic acid] reads 0.162 µM; that for `CN(c1ccc(Cl)cc1)c1ccc(C(=O)c2cc(C(=O)O)cc(C(=O)Nc3ccccc3)c2)cc1` [Example 2:11], 0.694 µM.
On to `CN(c1ccc(Cl)cc1)c1ccc(C(=O)c2cc(C(=O)O)cc(N(C(=O)C3CCC3)c3ccccc3)c2)cc1` [Example 10:31, 3-{4-[(4-Chlorophenyl)(methyl)amino]benzoyl}-5-[(N-phenyl)cyclobutylcarboxamido]benzoic acid], for which the IC50 stood at 0.277 µM.
Same read-out and setting: the same measure for `CN(c1ccc(Cl)cc1)c1ccc(C(=O)c2cc(C(=O)O)cc(-c3cccc(Cl)c3)c2)nc1` [Example 12:1, 3′-Chloro-5-{5-[(4-chlorophenyl)(methyl)amino]picolinoyl}biphenyl-3-carboxylic acid]: 0.184 µM; for `CON=C(c1ccc(N(C)c2ccc(Cl)cc2)cc1)c1cc(Oc2ccccc2)cc(C(=O)O)c1` (mixture of isomers) [Example 18, 3-({4-[(4-Chlorophenyl)(methyl)amino]phenyl}(methoxyimino)methyl)-5-phenoxybenzoic acid]: 0.745 µM.
With `COCC(=O)N(c1ccccc1)c1cc(C(=O)O)cc(C(=O)c2ccc(N(C)c3ccc(Cl)cc3)cn2)c1` [9:26, 3-{5-[(4-Chlorophenyl)(methyl)amino]picolinoyl}-5-(2-methoxy-N-phenylacet-amido)benzoic acid], the IC50 amounted to 0.466 µM.
Take `CN(c1ccc(Cl)cc1)c1ccc(C(=O)c2cc(C(=O)O)cc(N(CC(C)(C)O)c3ccccc3)c2)nc1` [Example 9:27, 3-{5-[(4-Chlorophenyl)(methyl)amino]picolinoyl}-5-[(2-hydroxy-2-methylpropyl)-(phenyl)amino]benzoic acid]: the IC50 came out at 0.031 µM.
For `C#CCN(c1ccccc1)c1cc(C(=O)O)cc(C(=O)c2ccc(N(C)c3ccc(Cl)cc3)cn2)c1` [9:8, 3-{5-[(4-Chlorophenyl)(methyl)amino]picolinoyl}-5-[phenyl(prop-2-ynyl)amino]-benzoic acid], the IC50 is 0.043 µM.
As for `CN(c1ccc(Cl)cc1)c1ccc(C(=O)c2cc(Nc3ccc(C(F)(F)F)cc3Cl)cc(C(=O)O)c2)cc1` [10:11, 3-[2-Chloro-4-(trifluoromethyl)phenylamino]-5-{4-[(4-chlorophenyl)(methyl)-amino]benzoyl}benzoic acid], the IC50 was 0.125 µM.
`CN(c1ccc(Cl)cc1)c1ccc(C(=O)c2ccc(NC(=O)c3cccc(Cl)c3)cc2)c(C(=O)O)c1` [Example 4:2, 2-[4-(3-Chlorobenzamido)benzoyl]-5-[(4-chlorophenyl)(methyl)amino)-benzoic acid]: the IC50 is 0.703 µM.
Turning to `CN(c1ccc(Cl)cc1)c1ccc(C(=O)c2cc(C(=O)O)cc(N(CC3(C)COC3)c3ccccc3F)c2)cc1` [10:28, 3-{4-[(4-Chlorophenyl)(methyl)amino]benzoyl}-5-{(2-fluorophenyl)[(3-methyl-oxetan-3-yl)methyl]amino}benzoic acid], the IC50 turned out to be 0.068 µM.
With `CN(Cc1cccc(Cl)c1)c1cc(C(=O)O)cc(C(=O)c2ccc(N(C)c3ccc(Cl)cc3)cn2)c1` [9:10, 3-[(3-Chlorobenzyl)(methyl)amino]-5-{5-[(4-chlorophenyl)(methyl)amino]-picolinoyl}benzoic acid], the IC50 is 0.075 µM.
Still for that read-out and setting: the result for `CN(c1ccc(Cl)cc1)c1ccc(C(=O)c2cc(C(=O)O)cc(N(C)C3CCOCC3)c2)cc1` [10:22, 3-{4-[(4-Chlorophenyl)(methyl)amino]benzoyl}-5-[methyl(4-tetrahydropyranyl)-amino]benzoic acid] reads 0.252 µM; that for `O=C(O)c1cc(Nc2ccc(Cl)cc2)ccc1C(=O)c1ccc(Nc2ccc(C(=O)C3CC3)cc2)cc1` [6:2, 5-(4-Chlorophenylamino)-2-[4-(4-cyclopropylcarbonylphenylamino)-benzoyl]benzoic acid], 0.39 µM; that for `CCN(CC)c1ccc(Oc2cc(C(=O)O)cc(C(=O)c3ccc(N(C)c4ccc(Cl)cc4)cc3)c2)cc1` [8:15, 3-{4-[(4-Chlorophenyl)(methyl)amino]benzoyl}-5-(4-(diethylamino)phenoxy)-benzoic acid], 0.183 µM.
As to `COc1ccc(N(CC2(C)COC2)c2cc(C(=O)O)cc(C(=O)c3ccc(N(C)c4ccc(Cl)cc4)cn3)c2)cc1` [9:25, 3-{5-[(4-Chlorophenyl)(methyl)amino]picolinoyl}-5-{(4-methoxyphenyl)-[(3-methyloxetan-3-yl)methyl]amino}benzoic acid], the IC50 amounted to 0.088 µM.
Same read-out and setting: the same measure for `CN(c1ccc(Cl)cc1)c1ccc(C(=O)c2cc(Oc3ccc(F)c(F)c3)cc(C(=O)O)c2)nc1` [8:2, 3-{5-[(4-Chlorophenyl)(methyl)amino]picolinoyl}-5-(3,4-difluorophenoxy)-benzoic acid]: 0.041 µM.

Still in this assay, the particulars now being: 5 min; total concentration of title compound in the assay 10 μM.
On to `CN(c1ccc(Cl)cc1)c1ccc(C(=O)c2ccc(NC(=O)c3cccc(Cl)c3)cc2)c(C(=O)O)c1` [Example 4:2, 2-[4-(3-Chlorobenzamido)benzoyl]-5-[(4-chlorophenyl)(methyl)amino)-benzoic acid], for which the inhibition at 10 µM is 100%.
Regarding `O=C(O)c1cc(Nc2ccc(Cl)cc2)ccc1C(=O)c1ccc(Nc2ccc(C(=O)C3CC3)cc2)cc1` [6:2, 5-(4-Chlorophenylamino)-2-[4-(4-cyclopropylcarbonylphenylamino)-benzoyl]benzoic acid], the inhibition at 10 µM was determined as 100%.

For orientation: IC50 means the concentration needed to halve the response being measured. In general, inhibition refers to the share of the control response that was lost under treatment.
